Where two headings read alike, the source gives them in different places.
Experiments:
Assay type in all cases: cell-based
lipoxygenase [1] = test: Activity of inhibiting lipoxygenase production in human whole blood (Table 1-1); conditions: A23187 25 μM, 15 min
Protocol: Evaluation of activity of inhibiting lipoxygenase production in human whole blood Into 2 ml of a heparin-treated vein blood of a healthy person without administration of a drug was added 2 μl of the DMSO solution containing the test sample of the sulfide ketone derivative listed in Table 1-1 as the drug to be tested (final 10^-5 M). After treatment at 37° C. for 5 minutes, 10 μl of a DMSO solution of A23187 was added (final 25 μM) to carry out the treatment at 37° C. for 15 minutes, followed by ice-cooling. As the internal standard substance for quantitation, 10 μl of a DMSO solution of 100 ng of 15-HETE was added, and then 0.8 ml of acetonitrile was added and the precipitates formed were removed by centrifugation. LTB4, 5-HETE, 12-HETE in the supernatant were separated and quantitated. The results are shown in Table 1-1 as the lipoxygenase production inhibitory ratio. | *For only this compound, the results are shown in "× 10^-4

lipoxygenase [2] = molecular target: T1, lipoxygenase (Rattus norvegicus, UniProt P12527); test: Activity of inhibiting lipoxygenase production in basophilic leukemia (RBL-1) cells (Table 3-2); conditions: 0.25 h, arachidonic acid 50 μg, A23187 25 μM, read-out: Inhibitory ratio (%) LTB4; for inhibition at 1 µM: 10^-6 M; for inhibition at 0.1 µM: 10^-7 M
T1 construct: A 5×10^6 amount cells of RBL-1 were used; endogenous in cells; host or cells: RBL-1 (basophilic leukemia cells)
T1 sequence (P12527 1-673): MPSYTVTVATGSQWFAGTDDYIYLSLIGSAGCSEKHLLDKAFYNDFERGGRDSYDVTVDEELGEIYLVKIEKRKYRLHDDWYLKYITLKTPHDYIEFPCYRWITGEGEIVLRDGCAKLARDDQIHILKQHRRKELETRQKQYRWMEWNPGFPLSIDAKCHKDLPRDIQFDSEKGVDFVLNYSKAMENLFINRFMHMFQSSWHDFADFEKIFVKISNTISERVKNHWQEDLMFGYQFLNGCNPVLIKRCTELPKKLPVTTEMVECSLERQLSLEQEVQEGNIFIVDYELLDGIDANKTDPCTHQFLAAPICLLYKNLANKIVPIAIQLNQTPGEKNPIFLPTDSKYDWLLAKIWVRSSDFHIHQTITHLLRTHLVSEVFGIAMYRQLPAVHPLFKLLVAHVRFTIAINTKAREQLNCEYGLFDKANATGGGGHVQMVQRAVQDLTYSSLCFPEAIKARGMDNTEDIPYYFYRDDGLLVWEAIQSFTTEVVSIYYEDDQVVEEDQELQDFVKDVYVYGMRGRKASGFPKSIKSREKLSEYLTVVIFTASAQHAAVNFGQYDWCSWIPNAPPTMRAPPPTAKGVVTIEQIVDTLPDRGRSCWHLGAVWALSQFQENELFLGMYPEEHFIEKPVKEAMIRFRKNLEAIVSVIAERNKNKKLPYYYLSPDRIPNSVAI
Protocol: Evaluation of activity of inhibiting lipoxygenase production […] (RBL-1) cells
A 5×10^6 amount cells of RBL-1 were used and the DMSO solution of each compound listed in Table 3-2 was added thereto so that the final concentration was obtained. After incubation at 37° C. for 5 minutes, 50 μg of arachidonic acid and 25 μM of calcium ionophore (A23187) were added thereto, followed by incubating at 37° C. for 15 minutes. The extraction was carried out after the reaction was completed. The product was determined by reversed phase HPLC.

lipoxygenase [3] = test: Activity of inhibiting lipoxygenase production in human whole blood (Table 2-1); conditions: final 10^-4 M, 37° C., 15 min, 100 µM; for Inhibitory ratio (%) 12-HETE: A23187 25 μM; for Inhibitory ratio (%) 5-HETE / Inhibitory ratio (%) LTB4: A23187 25 μm
Protocol: Evaluation of activity of inhibiting lipoxycenase production in human whole blood Into 2 ml of a heparin-treated vein blood of a healthy person without administration of a drug was added 2 μl of the DMSO solution of each compound listed in Table 2-1 (final 10^-4 M). After treatment at 37° C. for 5 minutes, 10 μl of a DMSO solution of A23187 was added (final 25 μm) to carry out the treatment at 37° C. for 15 minutes, followed by ice-cooling. As the internal standard substance for quantitation, 10 μl of a DMSO solution of 100 ng of 15-HETE was added, and then 0.8 ml of acetonitrile was added and the precipitates formed were removed by centrifugation. LTB4, 5-HETE, 12-HETE in the supernatant were separated and quantitated. The results are shown in Table 2-1 as a production inhibitory ratio of LTB4.

lipoxygenase [4] = molecular target: T2, lipoxygenase (Homo sapiens, UniProt P09917); test: Activity of inhibiting lipoxygenase production in human whole blood (Table 3-1); conditions: 0.25 h, final 10^-5 M, A23187 25 μM, 37° C.
T2 construct: heparin-treated vein blood of a healthy person without administration of a drug; from tissue; host or cells: human heparinised venous whole blood
T2 sequence (P09917 1-674): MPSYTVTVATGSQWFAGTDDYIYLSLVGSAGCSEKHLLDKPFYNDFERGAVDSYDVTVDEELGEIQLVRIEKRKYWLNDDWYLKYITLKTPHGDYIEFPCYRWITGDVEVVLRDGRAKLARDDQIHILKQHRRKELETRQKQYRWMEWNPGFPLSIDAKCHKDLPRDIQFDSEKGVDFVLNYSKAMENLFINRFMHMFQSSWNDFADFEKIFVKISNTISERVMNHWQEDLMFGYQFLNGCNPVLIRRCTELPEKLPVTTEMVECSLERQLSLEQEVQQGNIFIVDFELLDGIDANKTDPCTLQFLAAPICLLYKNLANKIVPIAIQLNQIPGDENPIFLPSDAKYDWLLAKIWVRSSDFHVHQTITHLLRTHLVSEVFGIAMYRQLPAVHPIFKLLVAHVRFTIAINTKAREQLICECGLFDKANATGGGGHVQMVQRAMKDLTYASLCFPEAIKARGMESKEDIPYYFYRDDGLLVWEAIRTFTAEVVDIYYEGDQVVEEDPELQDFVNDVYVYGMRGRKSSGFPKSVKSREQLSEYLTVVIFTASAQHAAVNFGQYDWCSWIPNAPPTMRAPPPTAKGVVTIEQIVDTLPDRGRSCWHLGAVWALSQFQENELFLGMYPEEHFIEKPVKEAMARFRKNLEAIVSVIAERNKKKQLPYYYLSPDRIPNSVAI
Protocol: Evaluation of activity of inhibiting lipoxygenase production in human whole blood
Into 1 ml of a heparin-treated vein blood of a healthy person without administration of a drug was added 1 μl of the DMSO solution of each compound listed in Table 3-1 (final 10^-5 M). After treatment at 37° C. for 5 minutes, 5 μl of a DMSO solution of calcium ionophone (A23187, 25 μM) was added to carry out the treatment at 37° C. for 15 minutes, followed by ice-cooling. As the internal standard substance for quantitation, 10 μl of a DMSO solution of 100 ng of 15-HETE was added, then 0.8 ml of acetonitrile was added, and the precipitates formed were removed by centrifugation. LTB4, 5-HETE in the supernatant were separated and quantitated, and the results are shown as the production inhibitory ratio of LTB4, etc. in Table 3-1.

[5] = footnote: results shown in × 10^-4 (only this compound)
[6] = read-out: Inhibitory ratio (%) 5-HETE
[7] = read-out: Inhibitory ratio (%) LTB4

COC(=O)CCCC(Sc1ccc2cc(OC)ccc2c1)C(C)=NO (stereo not drawn) [Example 1-4]
Inhibitory ratio (%) 5-HETE (lipoxygenase [1]; [5]): 43%
Inhibitory ratio (%) 12-HETE (lipoxygenase [1]; [5]): 29%

CON=C(CSc1ccc2cc(OC)ccc2c1)CC(=O)OC [Example 1-6, methyl 4-(6-methoxy-2-naphthylthio)-3-methoxyiminobutanoate]
Inhibitory ratio (%) 5-HETE (lipoxygenase [1]; final 10^-5 M, 37° C., 10 µM): 29%
Inhibitory ratio (%) LTB4 (lipoxygenase [1]; final 10^-5 M, 37° C., 10 µM): 37%

COC(=O)CCC(CSc1ccc2cc(O)ccc2c1)=NO [Example 1-11, methyl 5-(6-hydroxy-2-naphthylthio)-4-hydroxyiminopentanoate]
Inhibitory ratio (%) 5-HETE (lipoxygenase [1]; final 10^-5 M, 37° C., 10 µM): 56%
Inhibitory ratio (%) 12-HETE (lipoxygenase [1]; final 10^-5 M, 37° C., 10 µM): 28%
Inhibitory ratio (%) LTB4 (lipoxygenase [1]; final 10^-5 M, 37° C., 10 µM): 64%

COC(=O)CCCC(=O)CSc1ccc2cc(O)ccc2c1 [Example 1-12, methyl 6-(6-hydroxy-2-naphthylthio)-5-oxohexanoate]
Inhibitory ratio (%) 5-HETE (lipoxygenase [1]; final 10^-5 M, 37° C., 10 µM): 6%
Inhibitory ratio (%) 12-HETE (lipoxygenase [1]; final 10^-5 M, 37° C., 10 µM): 17%
Inhibitory ratio (%) LTB4 (lipoxygenase [1]; final 10^-5 M, 37° C., 10 µM): 2%
inhibition at 1 µM (lipoxygenase [2]): 53%
inhibition at 0.1 µM (lipoxygenase [2]): 27%
inhibition at 0.01 µM (lipoxygenase [2]; 10^-8 M): 28%

O=C(O)CCCC(=O)CSc1ccc2cc(O)ccc2c1 [Example 1-14, 6-(6-hydroxy-2-naphthylthio)-5-oxohexanoic acid]
Inhibitory ratio (%) 5-HETE (lipoxygenase [1]; final 10^-5 M, 37° C., 10 µM): 49%
Inhibitory ratio (%) 12-HETE (lipoxygenase [1]; final 10^-5 M, 37° C., 10 µM): 20%
Inhibitory ratio (%) LTB4 (lipoxygenase [1]; final 10^-5 M, 37° C., 10 µM): 37%

COC(=O)CCCC(=O)C(=O)c1ccc2cc(O)ccc2c1 [Example 2-4, methyl 6-(6-hyerocy-2-naphthyl)-5,6-dioxohexanoate]
Inhibitory ratio (%) 12-HETE (lipoxygenase [3]): 3%
Inhibitory ratio (%) 5-HETE (lipoxygenase [3]): 81%
Inhibitory ratio (%) LTB4 (lipoxygenase [3]): 78%

COC(=O)CCCC(=NO)C(=NO)c1ccc2cc(O)ccc2c1 [Example 2-5, methyl 6-(6-hydroxy-2-naphthyl)-5,6-dihydroxyiminohexanoate]
Inhibitory ratio (%) 12-HETE (lipoxygenase [3]): 4%
Inhibitory ratio (%) 5-HETE (lipoxygenase [3]): 78%
Inhibitory ratio (%) LTB4 (lipoxygenase [3]): 93%

COC(=O)CCCC(=NO)C(=O)c1ccc2cc(O)ccc2c1 [Example 2-9, methyl 6-(6-hydroxy-2-naphthyl)-5-hydroxvimino-6-oxohexanoate]
Inhibitory ratio (%) 12-HETE (lipoxygenase [3]): 27%
Inhibitory ratio (%) 5-HETE (lipoxygenase [3]): 77%
Inhibitory ratio (%) LTB4 (lipoxygenase [3]): 66%

COC(=O)CCCC(=O)N(O)c1ccc2ccccc2c1O [Example 3-2, N-hydroxy-N-(1-hydroxy-2-naphthyl)-4-methoxycarbonylbutanamide]
inhibition at 10 µM (lipoxygenase [4]; [6]): 80%

O=C(O)CCCC(=O)N(O)c1ccc2ccccc2c1O [Example 3-3, N-hydroxy-N-(1-hydroxy-2-naphthyl)-4-carboxybutanamide]
inhibition at 1 µM (lipoxygenase [2]): 35%
inhibition at 0.1 µM (lipoxygenase [2]): 20%

COC(=O)CCCCC(=O)N(O)c1ccc2ccccc2c1O [Example 3-4, N-hydroxy-N-(1-hydroxy-2-naphthyl)-5-methoxycarbonylpentanamide]
inhibition at 10 µM (lipoxygenase [4]; [6]): 38%
inhibition at 10 µM (lipoxygenase [4]; [7]): 45%

COC(=O)CCCCCC(=O)N(O)c1ccc2ccccc2c1O [Example 3-5, N-hydroxy-N-(1-hydroxy-2-naphthyl)-6-methoxycarbonylhexanamide]
inhibition at 10 µM (lipoxygenase [4]; [6]): 40%
inhibition at 10 µM (lipoxygenase [4]; [7]): 39%

COC(=O)COCC(=O)N(O)c1ccc2ccccc2c1O [Example 3-6, N-hydroxy-N-(1-hydroxy-2-naphthyl)-4-methoxycarbonyl-3-oxabutanamide]
inhibition at 10 µM (lipoxygenase [4]; [6]): 18%
inhibition at 10 µM (lipoxygenase [4]; [7]): 24%

COC(=O)CCC(=O)N(O)Cc1ccc2ccccc2c1 [Example 3-7, N-hydroxy-N-(2-naphthylmethyl)-3-methoxycarbonylpropionamide]
inhibition at 10 µM (lipoxygenase [4]; [6]): 59%
inhibition at 10 µM (lipoxygenase [4]; [7]): 71%

COC(=O)CCCC(=O)N(O)Cc1ccc2ccccc2c1 [Example 3-8, N-hydroxy-N-(2-naphthylmethyl)-4methoxycarbonylbutanamide]
inhibition at 10 µM (lipoxygenase [4]; [6]): 59%
inhibition at 10 µM (lipoxygenase [4]; [7]): 60%

COC(=O)CCCC(=O)N(O)Cc1ccc2ccccc2c1OC [Example 3-9, N-hydroxy-N-(1-methoxy-2-naphthylmethyl)-4-methoxycarbonylbutanamide]
inhibition at 10 µM (lipoxygenase [4]; [6]): 27%
inhibition at 10 µM (lipoxygenase [4]; [7]): 40%

COC(=O)c1cccc(C(=O)N(O)c2ccc3ccccc3c2O)c1 [Example 3-10, N-hydroxy-N-(1-hydroxy-2-naphthyl)-3-methoxycarbonylbenzamide]
inhibition at 10 µM (lipoxygenase [4]; [6]): 45%
inhibition at 10 µM (lipoxygenase [4]; [7]): 63%

Reference: patent publication US5149859A, “Naphthalene derivatives” (Teijin Limited, priority 1989, dated 1992)
